{
  "source": "patent US20090238808A1",
  "about": "“Process for the identification of novel enzyme interacting compounds” (priority 2005, published 2009)",
  "assay_in_all_cases": "In-lysate competition binding with kinobeads, Jurkat lysate, iTRAQ MS, relative intensity of identified proteins (Table 22)",
  "settings_in_all_cases": "DMSO control = 1.0",
  "key": {"[1]": {"molecular_target": "T1, proteins captured on kinobeads from Jurkat cell lysate (Homo sapiens, UniProt P07947)", "T1 construct": "endogenous in cells; host or cells: Jurkat clone E6-1 lysate", "T1 sequence (P07947 whole entry)": "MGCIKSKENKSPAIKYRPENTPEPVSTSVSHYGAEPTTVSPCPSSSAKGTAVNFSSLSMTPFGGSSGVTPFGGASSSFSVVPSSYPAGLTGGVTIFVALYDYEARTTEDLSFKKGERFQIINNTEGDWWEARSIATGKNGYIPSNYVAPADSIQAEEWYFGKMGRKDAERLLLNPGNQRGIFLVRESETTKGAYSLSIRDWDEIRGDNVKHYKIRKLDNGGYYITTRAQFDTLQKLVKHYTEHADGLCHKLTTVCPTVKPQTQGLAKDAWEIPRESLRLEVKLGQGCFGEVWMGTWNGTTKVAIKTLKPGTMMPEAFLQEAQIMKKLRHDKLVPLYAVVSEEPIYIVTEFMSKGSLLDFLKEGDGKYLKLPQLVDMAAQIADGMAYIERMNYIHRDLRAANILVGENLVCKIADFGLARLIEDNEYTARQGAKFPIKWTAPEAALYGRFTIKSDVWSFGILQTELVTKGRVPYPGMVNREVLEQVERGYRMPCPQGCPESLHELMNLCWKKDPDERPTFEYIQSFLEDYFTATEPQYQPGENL", "description": "(§1) This example illustrates competition binding in cell lysates (see particularly the third aspect of the invention). A test compound, Bisindolylmaleimide VIII (Bis VIII, a well known kinase inhibitor; Davies et al., 2000. Specificity and mechanism of action of some commonly used protein kinase inhibitors. Biochemical Journal 351 (Pt 1): 95-105) was added to a cell lysate thereby allowing the test compound to bind to the target proteins in the lysate. Then the lysate was contacted with the kinobeads affinity matrix to capture remaining free target proteins. The proteins bound to the kinobeads matrix were then eluted with detergent-containing buffer, separated on a SDS-polyacryamide gel and analyzed by immunodetection (Western blots) or mass spectrometry detection.\n(§2) For the quantitative detection of proteins by mass spectrometry proteins were eluted from the affinity matrix and subsequently separated by SDS-Polyacrylamide gel elecrophoresis. Suitable gel areas were cut out and subjected to in-gel proteolytic digestion with trypsin.\n(§3) Four tryptic digest samples (corresponding to three different Bis VIII concentrations in the lysate and one DMSO control) were labeled with ITRAQ reagents and the combined samples were analyzed in a single LC-MS/MS mass spectrometry analysis followed by peak quantification in the MS/MS spectrum (Ross et al., 2004. Multiplexed protein quantitation in Saccharomyces cerevisiae using amine-reactive isobaric tagging reagents. Mol. Cell. Proteomics 3(12): 1154-1169). […] Binding curves for individual kinases are shown (FIG. 5). The relative intensity 50 (RI50) values representing the affinity of kinase-compound pairs are similar to IC50 values reported by kinase enzyme assays (Davies et al., 2000. Specificity and mechanism of action of some commonly used protein kinase inhibitors. Biochemical Journal 351 (Pt 1): 95-105).\n(§4) Aliqots of Jurkat lysate (10 mg protein) were incubated with different Bis VIII concentrations for one hour at 4° C. (0.025 μM, 0.074 μM, 0.22 μM, 0.67 μM, 2.0 μM and 6.0 μM final concentration of Bis VIII). To this end Bis VIII solutions were prepared in 100% DMSO as solvent that corresponded to 200 fold desired final Bis VIII concentration (Bis VIII from Alexis Biochemicals cat. number ALX 270-056). Five μl of these solutions were added to 1 ml of lysate resulting in the indicated final concentrations. For a control experiment 5 μl of DMSO without Bis VIII were used.\n(§5) To each preincubated lysate sample 40 μl of kinobeads (see example 1) were added and incubated for one hour at 4° C. During the incubation the tubes were rotated on an end-over-end shaker (Roto Shake Genie, Scientific Industries Inc.). Beads were collected by centrifugation, transfered to Mobicol-columns (MoBiTech 10055) and washed with 10 ml 1×DP buffer containing 0.4% NP40 detergent, followed by a wash with 5 ml 1×DP buffer with 0.2% NP40. To elute the bound proteins, 100 μl 2×SDS sample buffer was added, the column was heated for 30 minutes at 50° C. and the eluate was transferred to a microfuge tube by centrifugation. Proteins were then separated by SDS-Polyacrylamide electrophoresis (SDS-PAGE). The composition and preparation of buffers is described in example 2.\n(§6) The peptide extracts of samples treated with different concentrations of the test compound (0.074 μM, 0.22 μM and 0.67 μM Bis VIII) and the solvent control (0.5% DMSO) were treated with different isomers of the isobaric tagging reagent (iTRAQ Reagents Multiplex Kit, part number 4352135, Applied Biosystems, Foster City, Calif., USA). The iTRAQ reagents are a set of multiplexed, amine-specific, stable isotope reagents that can label all peptides in up to four different biological samples enabling simultaneous identification and quantitation of peptides. The iTRAQ reagents were used according to instructions provided by the manufacturer. […]"}, "[2]": {"molecular_target": "T2, proteins captured on kinobeads from Jurkat cell lysate (Homo sapiens, UniProt P45984)", "T2 construct": "endogenous in cells; host or cells: Jurkat clone E6-1 lysate", "T2 sequence (P45984 whole entry)": "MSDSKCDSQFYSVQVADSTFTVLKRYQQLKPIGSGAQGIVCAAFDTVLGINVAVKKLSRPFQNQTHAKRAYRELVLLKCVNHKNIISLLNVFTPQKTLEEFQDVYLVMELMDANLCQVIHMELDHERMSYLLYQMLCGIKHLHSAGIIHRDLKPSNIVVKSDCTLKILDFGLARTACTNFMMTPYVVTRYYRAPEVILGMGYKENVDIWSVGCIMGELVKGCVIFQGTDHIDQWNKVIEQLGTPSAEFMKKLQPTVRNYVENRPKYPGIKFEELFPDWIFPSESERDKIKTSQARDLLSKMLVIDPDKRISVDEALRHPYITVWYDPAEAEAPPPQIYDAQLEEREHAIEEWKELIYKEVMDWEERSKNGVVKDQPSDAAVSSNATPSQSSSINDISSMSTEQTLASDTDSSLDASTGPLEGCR", "description": "as §1, §2, §3, §4, §5, §6"}, "[3]": {"molecular_target": "T3, proteins captured on kinobeads from Jurkat cell lysate (Homo sapiens, UniProt Q13557)", "T3 construct": "endogenous in cells; host or cells: Jurkat clone E6-1 lysate", "description": "as §1, §2, §3, §4, §5, §6"}, "[4]": {"molecular_target": "T4, proteins captured on kinobeads from Jurkat cell lysate (Homo sapiens, UniProt P30291)", "T4 construct": "endogenous in cells; host or cells: Jurkat clone E6-1 lysate", "T4 sequence (P30291 whole entry)": "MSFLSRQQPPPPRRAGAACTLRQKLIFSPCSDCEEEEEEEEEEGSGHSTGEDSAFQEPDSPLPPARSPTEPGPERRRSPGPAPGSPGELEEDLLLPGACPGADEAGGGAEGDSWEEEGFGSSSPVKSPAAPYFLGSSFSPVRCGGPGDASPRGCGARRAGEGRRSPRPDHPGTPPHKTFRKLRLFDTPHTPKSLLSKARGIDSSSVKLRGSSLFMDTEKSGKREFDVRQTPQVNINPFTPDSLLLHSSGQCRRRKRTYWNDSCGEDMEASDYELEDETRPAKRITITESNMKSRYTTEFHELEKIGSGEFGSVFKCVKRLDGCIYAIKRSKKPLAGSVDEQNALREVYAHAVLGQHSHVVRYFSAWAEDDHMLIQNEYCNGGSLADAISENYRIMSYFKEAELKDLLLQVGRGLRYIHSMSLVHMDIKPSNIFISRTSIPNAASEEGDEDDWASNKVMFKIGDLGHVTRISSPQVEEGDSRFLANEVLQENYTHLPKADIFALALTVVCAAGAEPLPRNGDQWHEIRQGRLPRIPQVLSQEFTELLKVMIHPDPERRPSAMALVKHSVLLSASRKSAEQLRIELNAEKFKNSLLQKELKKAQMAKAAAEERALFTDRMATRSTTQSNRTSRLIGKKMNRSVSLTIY", "description": "as §1, §2, §3, §4, §5, §6"}, "[5]": {"molecular_target": "T5, proteins captured on kinobeads from Jurkat cell lysate (Homo sapiens, UniProt O14976)", "T5 construct": "endogenous in cells; host or cells: Jurkat clone E6-1 lysate", "description": "as §1, §2, §3, §4, §5, §6"}, "[6]": {"molecular_target": "T6, proteins captured on kinobeads from Jurkat cell lysate (Homo sapiens, UniProt P12931)", "T6 construct": "endogenous in cells; host or cells: Jurkat clone E6-1 lysate", "T6 sequence (P12931 whole entry)": "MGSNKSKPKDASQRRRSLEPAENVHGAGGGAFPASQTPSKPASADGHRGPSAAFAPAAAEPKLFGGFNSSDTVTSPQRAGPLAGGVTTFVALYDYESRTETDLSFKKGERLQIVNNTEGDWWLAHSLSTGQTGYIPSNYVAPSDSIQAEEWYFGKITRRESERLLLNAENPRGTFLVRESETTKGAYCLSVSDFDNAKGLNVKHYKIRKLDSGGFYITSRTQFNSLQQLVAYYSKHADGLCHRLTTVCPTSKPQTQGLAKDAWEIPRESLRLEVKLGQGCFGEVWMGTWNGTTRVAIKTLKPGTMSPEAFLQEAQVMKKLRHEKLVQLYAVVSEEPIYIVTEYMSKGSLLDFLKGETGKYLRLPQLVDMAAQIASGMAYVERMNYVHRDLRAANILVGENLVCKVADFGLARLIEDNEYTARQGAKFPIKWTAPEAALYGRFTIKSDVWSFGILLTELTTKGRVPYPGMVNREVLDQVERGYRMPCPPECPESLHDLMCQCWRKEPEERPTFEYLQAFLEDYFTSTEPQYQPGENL", "description": "as §1, §2, §3, §4, §5, §6"}, "[7]": {"molecular_target": "T7, proteins captured on kinobeads from Jurkat cell lysate (Homo sapiens, UniProt P24941)", "T7 construct": "endogenous in cells; host or cells: Jurkat clone E6-1 lysate", "description": "as §1, §2, §3, §4, §5, §6"}, "[8]": {"molecular_target": "T8, proteins captured on kinobeads from Jurkat cell lysate (Homo sapiens, UniProt P06239)", "T8 construct": "endogenous in cells; host or cells: Jurkat clone E6-1 lysate", "T8 sequence (P06239 whole entry)": "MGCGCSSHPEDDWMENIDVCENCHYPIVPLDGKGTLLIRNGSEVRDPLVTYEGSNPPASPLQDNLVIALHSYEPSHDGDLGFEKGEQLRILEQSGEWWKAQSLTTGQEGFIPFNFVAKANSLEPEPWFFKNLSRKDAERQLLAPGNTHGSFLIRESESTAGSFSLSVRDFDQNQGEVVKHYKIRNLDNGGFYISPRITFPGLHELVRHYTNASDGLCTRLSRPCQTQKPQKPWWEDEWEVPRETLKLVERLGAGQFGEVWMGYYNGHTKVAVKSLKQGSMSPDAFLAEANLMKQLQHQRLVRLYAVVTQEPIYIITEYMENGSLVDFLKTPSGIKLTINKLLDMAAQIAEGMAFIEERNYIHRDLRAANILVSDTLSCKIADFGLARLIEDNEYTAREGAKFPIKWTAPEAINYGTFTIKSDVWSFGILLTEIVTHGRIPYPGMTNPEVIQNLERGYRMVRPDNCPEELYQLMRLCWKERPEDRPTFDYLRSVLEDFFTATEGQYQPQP", "description": "as §1, §2, §3, §4, §5, §6"}, "[9]": {"molecular_target": "T9, proteins captured on kinobeads from Jurkat cell lysate (Homo sapiens, UniProt P54619)", "T9 construct": "endogenous in cells; host or cells: Jurkat clone E6-1 lysate", "description": "as §1, §2, §3, §4, §5, §6"}, "[10]": {"molecular_target": "T10, proteins captured on kinobeads from Jurkat cell lysate (Homo sapiens, UniProt Q9UHD2)", "T10 construct": "endogenous in cells; host or cells: Jurkat clone E6-1 lysate", "T10 sequence (Q9UHD2 whole entry)": "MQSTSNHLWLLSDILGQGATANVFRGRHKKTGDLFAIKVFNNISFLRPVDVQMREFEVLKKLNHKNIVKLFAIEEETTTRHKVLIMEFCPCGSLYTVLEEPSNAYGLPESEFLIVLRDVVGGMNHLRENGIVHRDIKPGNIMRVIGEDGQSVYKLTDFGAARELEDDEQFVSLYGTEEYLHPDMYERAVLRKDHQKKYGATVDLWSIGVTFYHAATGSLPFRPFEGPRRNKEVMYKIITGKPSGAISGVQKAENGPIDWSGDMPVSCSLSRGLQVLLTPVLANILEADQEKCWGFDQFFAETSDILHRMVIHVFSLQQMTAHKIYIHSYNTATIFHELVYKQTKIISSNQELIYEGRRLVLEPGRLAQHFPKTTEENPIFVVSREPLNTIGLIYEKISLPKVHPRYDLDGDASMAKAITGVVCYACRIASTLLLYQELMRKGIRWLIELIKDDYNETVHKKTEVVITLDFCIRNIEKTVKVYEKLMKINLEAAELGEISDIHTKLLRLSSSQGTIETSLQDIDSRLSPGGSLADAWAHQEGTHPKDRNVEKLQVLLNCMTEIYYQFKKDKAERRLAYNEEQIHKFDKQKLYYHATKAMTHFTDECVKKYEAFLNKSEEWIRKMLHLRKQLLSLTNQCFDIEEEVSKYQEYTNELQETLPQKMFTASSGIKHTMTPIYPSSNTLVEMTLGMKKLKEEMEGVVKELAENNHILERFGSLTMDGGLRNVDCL", "description": "as §1, §2, §3, §4, §5, §6"}, "[11]": {"molecular_target": "T11, proteins captured on kinobeads from Jurkat cell lysate (Homo sapiens, UniProt Q6PHR2)", "T11 construct": "endogenous in cells; host or cells: Jurkat clone E6-1 lysate", "T11 sequence (Q6PHR2 whole entry)": "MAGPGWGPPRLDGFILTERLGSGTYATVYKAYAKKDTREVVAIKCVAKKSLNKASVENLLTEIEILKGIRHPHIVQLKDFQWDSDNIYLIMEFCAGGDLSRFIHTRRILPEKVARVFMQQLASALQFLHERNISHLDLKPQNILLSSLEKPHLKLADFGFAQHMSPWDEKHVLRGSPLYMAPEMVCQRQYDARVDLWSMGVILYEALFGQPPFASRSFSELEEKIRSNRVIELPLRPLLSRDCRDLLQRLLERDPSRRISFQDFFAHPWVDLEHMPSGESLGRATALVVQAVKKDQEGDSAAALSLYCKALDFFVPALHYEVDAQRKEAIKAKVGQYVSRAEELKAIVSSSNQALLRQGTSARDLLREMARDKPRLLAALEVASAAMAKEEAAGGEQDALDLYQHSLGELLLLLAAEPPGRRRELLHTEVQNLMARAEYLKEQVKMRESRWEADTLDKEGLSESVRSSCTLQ", "description": "as §1, §2, §3, §4, §5, §6"}, "[12]": {"molecular_target": "T12, proteins captured on kinobeads from Jurkat cell lysate (Homo sapiens, UniProt P50613)", "T12 construct": "endogenous in cells; host or cells: Jurkat clone E6-1 lysate", "T12 sequence (P50613 whole entry)": "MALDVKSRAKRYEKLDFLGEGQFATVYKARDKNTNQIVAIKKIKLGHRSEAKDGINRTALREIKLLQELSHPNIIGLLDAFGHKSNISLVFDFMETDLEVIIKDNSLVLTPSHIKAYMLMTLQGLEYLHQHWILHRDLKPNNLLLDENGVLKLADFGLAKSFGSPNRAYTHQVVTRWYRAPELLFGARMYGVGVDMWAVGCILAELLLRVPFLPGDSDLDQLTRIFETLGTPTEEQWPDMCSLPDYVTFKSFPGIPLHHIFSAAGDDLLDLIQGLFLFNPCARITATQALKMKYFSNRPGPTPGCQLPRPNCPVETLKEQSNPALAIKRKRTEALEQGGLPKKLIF", "description": "as §1, §2, §3, §4, §5, §6"}, "[13]": {"molecular_target": "T13, proteins captured on kinobeads from Jurkat cell lysate (Homo sapiens, UniProt P48729)", "T13 construct": "endogenous in cells; host or cells: Jurkat clone E6-1 lysate", "T13 sequence (P48729 whole entry)": "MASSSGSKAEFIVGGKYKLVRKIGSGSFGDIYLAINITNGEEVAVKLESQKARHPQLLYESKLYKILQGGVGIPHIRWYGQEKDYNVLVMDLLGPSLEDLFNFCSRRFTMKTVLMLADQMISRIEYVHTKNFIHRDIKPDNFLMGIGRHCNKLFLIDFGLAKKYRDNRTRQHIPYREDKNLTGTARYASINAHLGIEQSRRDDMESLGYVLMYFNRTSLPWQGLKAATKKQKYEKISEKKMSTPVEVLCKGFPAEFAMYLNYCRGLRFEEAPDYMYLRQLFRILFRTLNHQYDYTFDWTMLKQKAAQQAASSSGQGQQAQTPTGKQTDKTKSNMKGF", "description": "as §1, §2, §3, §4, §5, §6"}, "[14]": {"molecular_target": "T14, proteins captured on kinobeads from Jurkat cell lysate (Homo sapiens, UniProt Q08881)", "T14 construct": "endogenous in cells; host or cells: Jurkat clone E6-1 lysate", "description": "as §1, §2, §3, §4, §5, §6"}, "[15]": {"molecular_target": "T15, proteins captured on kinobeads from Jurkat cell lysate (Homo sapiens, UniProt Q00535)", "T15 construct": "endogenous in cells; host or cells: Jurkat clone E6-1 lysate", "T15 sequence (Q00535 whole entry)": "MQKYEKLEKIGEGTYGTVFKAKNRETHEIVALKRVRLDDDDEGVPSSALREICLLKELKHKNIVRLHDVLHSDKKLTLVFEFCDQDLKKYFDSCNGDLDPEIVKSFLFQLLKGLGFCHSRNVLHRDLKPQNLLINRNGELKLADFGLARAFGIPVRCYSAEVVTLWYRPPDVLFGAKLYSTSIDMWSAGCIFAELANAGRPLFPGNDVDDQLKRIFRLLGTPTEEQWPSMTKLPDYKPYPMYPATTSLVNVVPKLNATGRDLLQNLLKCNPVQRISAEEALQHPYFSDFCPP", "description": "as §1, §2, §3, §4, §5, §6"}},
  "data": [
    {"smiles": "Cn1cc(C2=C(c3cn(CCCN)c4ccccc34)C(=O)NC2=O)c2ccccc21", "note": "[Bis VIII, Bisindolylmaleimide VIII]", "values": [
      {"measurement": "Relative Intensity, YES (YES1)", "setting": "[1]; 0.074 uM in lysate", "value": 0.82},
      {"measurement": "Relative Intensity, YES (YES1)", "setting": "[1]; 0.67 uM in lysate", "value": 0.87},
      {"measurement": "Relative Intensity, JNK2 (MAPK9)", "setting": "[2]; 0.074 uM in lysate", "value": 0.97},
      {"measurement": "Relative Intensity, JNK2 (MAPK9)", "setting": "[2]; 0.67 uM in lysate", "value": 1.04},
      {"measurement": "Relative Intensity, CaMK2d", "setting": "[3]; 0.074 uM in lysate", "value": 0.91},
      {"measurement": "Relative Intensity, CaMK2d", "setting": "[3]; 0.67 uM in lysate", "value": 0.88},
      {"measurement": "Relative Intensity, Wee1", "setting": "[4]; 0.074 uM in lysate", "value": 1.21},
      {"measurement": "Relative Intensity, Wee1", "setting": "[4]; 0.67 uM in lysate", "value": 1.14},
      {"measurement": "Relative Intensity, GAK", "setting": "[5]; 0.074 uM in lysate", "value": 0.92},
      {"measurement": "Relative Intensity, GAK", "setting": "[5]; 0.67 uM in lysate", "value": 0.97},
      {"measurement": "Relative Intensity, SRC", "setting": "[6]; 0.074 uM in lysate", "value": 0.93},
      {"measurement": "Relative Intensity, SRC", "setting": "[6]; 0.67 uM in lysate", "value": 0.94},
      {"measurement": "Relative Intensity, CDK2", "setting": "[7]; 0.074 uM in lysate", "value": 0.89},
      {"measurement": "Relative Intensity, CDK2", "setting": "[7]; 0.67 uM in lysate", "value": 0.65},
      {"measurement": "Relative Intensity, LCK", "setting": "[8]; 0.074 uM in lysate", "value": 0.87},
      {"measurement": "Relative Intensity, LCK", "setting": "[8]; 0.67 uM in lysate", "value": 0.94},
      {"measurement": "Relative Intensity, PRKAG1", "setting": "[9]; 0.074 uM in lysate", "value": 0.78},
      {"measurement": "Relative Intensity, PRKAG1", "setting": "[9]; 0.67 uM in lysate", "value": 0.68},
      {"measurement": "Relative Intensity, TBK1", "setting": "[10]; 0.074 uM in lysate", "value": 1.05},
      {"measurement": "Relative Intensity, TBK1", "setting": "[10]; 0.67 uM in lysate", "value": 1.14},
      {"measurement": "Relative Intensity, ULK3", "setting": "[11]; 0.074 uM in lysate", "value": 0.95},
      {"measurement": "Relative Intensity, ULK3", "setting": "[11]; 0.67 uM in lysate", "value": 1.15},
      {"measurement": "Relative Intensity, CDK7", "setting": "[12]; 0.074 uM in lysate", "value": 1.03},
      {"measurement": "Relative Intensity, CDK7", "setting": "[12]; 0.67 uM in lysate", "value": 0.89},
      {"measurement": "Relative Intensity, CK1a (CSNK1A1)", "setting": "[13]; 0.074 uM in lysate", "value": 0.97},
      {"measurement": "Relative Intensity, CK1a (CSNK1A1)", "setting": "[13]; 0.67 uM in lysate", "value": 1.02},
      {"measurement": "Relative Intensity, ITK", "setting": "[14]; 0.074 uM in lysate", "value": 0.80},
      {"measurement": "Relative Intensity, ITK", "setting": "[14]; 0.67 uM in lysate", "value": 0.91},
      {"measurement": "Relative Intensity, CDK5", "setting": "[15]; 0.074 uM in lysate", "value": 0.92},
      {"measurement": "Relative Intensity, CDK5", "setting": "[15]; 0.67 uM in lysate", "value": 0.95}
    ]}
  ]
}
